Test results from patent EP3168210A1, “CRYSTALLINE FORMS OF ENTINOSTAT” (SANDOZ AG, priority 2015, dated 2017).

Columns and labels:
[1] = Water solubility of crystal forms measured by HPLC; format: physicochemical; settings: 25°C
Protocol: The water solubilities at 25°C of different crystal forms of Entinostat have been measured by HPLC and are set out in the following table: […]

[2] = Compression study (hydraulic press, polymorphic form after compression); format: physicochemical; settings: about 100 mg powder compressed to 5 tonnes/cm^2, held for 1h; slight crystallinity decrease
Protocol: The compression study was performed using a Specac hydraulic press. A sample powder (approx. 100mg) is loaded into a metal die (ring shaped metal holder). A snugly fitted billet (a cylinder-shaped metal rod) is then placed into the die, on top of the powder sample. The die and billet assembly is then placed into the hydraulic press and compressed to a pressure of 5 tonnes/cm^2 and held under that pressure for 1h. The billet is then removed and the disc extracted from the die.

Compound	Water solubility [1] [µg/mL]	polymorphic form after compression [2]
Nc1ccccc1NC(=O)c1ccc(CNC(=O)OCc2cccnc2)cc1 [Form A, (pyridin-3-yl)methyl 4-(2-aminophenylcarbamoyl)benzylcarbamate]	48	maintain the same polymorphic form
Nc1ccccc1NC(=O)c1ccc(CNC(=O)OCc2cccnc2)cc1 [Form B, (pyridin-3-yl)methyl 4-(2-aminophenylcarbamoyl)benzylcarbamate]	28	maintain the same polymorphic form
Nc1ccccc1NC(=O)c1ccc(CNC(=O)OCc2cccnc2)cc1 [Form D, (pyridin-3-yl)methyl 4-(2-aminophenylcarbamoyl)benzylcarbamate]	130	maintain the same polymorphic form
